Target: T1, recombinant CETP enzyme (rCETP) (Homo sapiens, UniProt P11597)
T1 construct: purchased ROAR Biomedicals, USA
T1 sequence (P11597 18-493): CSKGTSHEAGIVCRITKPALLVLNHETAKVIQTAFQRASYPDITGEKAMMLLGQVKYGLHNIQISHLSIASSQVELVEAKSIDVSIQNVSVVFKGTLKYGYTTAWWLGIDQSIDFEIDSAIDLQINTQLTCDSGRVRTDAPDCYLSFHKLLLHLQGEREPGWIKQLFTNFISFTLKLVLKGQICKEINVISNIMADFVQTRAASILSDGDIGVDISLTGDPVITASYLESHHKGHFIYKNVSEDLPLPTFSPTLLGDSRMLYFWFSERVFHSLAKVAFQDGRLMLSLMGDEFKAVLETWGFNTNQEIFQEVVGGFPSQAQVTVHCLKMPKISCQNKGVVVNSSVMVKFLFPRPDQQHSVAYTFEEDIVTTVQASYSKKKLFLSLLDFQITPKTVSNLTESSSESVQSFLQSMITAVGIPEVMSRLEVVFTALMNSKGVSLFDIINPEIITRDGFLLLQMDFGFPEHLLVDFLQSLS
Assay: In vitro CETP inhibition assay, fluorometric kit (ROAR Biomedicals)
Assay type: biochemical
Conditions: rCETP 50 ng, 37° C. for 90 minutes, fluorescence Ex 492 nm / Em 516 nm
From the text: Determination of in Vitro CETP Activity Using Fluorometric Technique
An in vitro cholesteryl ester transfer protein inhibition (CETP) assay using a commercially available fluorometric assay kit from ROAR Biomedicals, USA was used to measure the CETP inhibition activity of the compounds of this application. This assay kit uses a donor molecule containing a fluorescent self-quenched neutral lipid that is transferred to an acceptor molecule in the presence of recombinant CETP enzyme (rCETP). The CETP-mediated transfer of the fluorescent neutral lipid to the acceptor molecule results in an increase in fluorescence (Excitation: 492 nm; Emission: 516 nm).
20 mM stock solutions of compounds were prepared in 100% DMSO and further dilutions were made such that the final concentration of DMSO in the reaction mix was 1%. […] The assay was performed in 96 well microplates and in each well, the reaction mixture contained 190 μl of assay buffer (150 mM NaCl, 10 mM Tris and 2 mM EDTA, pH-7.4), 4 μl of donor particle, 4 μl of acceptor particle, rCETP (50 ng) and 2 μl of test compound at varying final concentration of 0.1, 1, 10, 100, 1000 & 10000 nM. Two control reactions were performed, one without test compound (positive control) and the other without the rCETP (negative control). The reactions were incubated at 37° C. for 90 minutes and the reaction plate was transferred to a PCR machine MX3005P and the fluorescence units (FLU) were quantified (Excitation: 492 nm; Emission: 516 nm).
The negative control values were subtracted from the positive control as well as all the test values to correct for background fluorescence. The percentage inhibition of activity was calculated by using the following equation: % Inhibition of CETP activity=[100−(100×(FLU in test/FLU in positive control))].
The half maximal inhibitory concentration (IC50) was determined using the BIOGRAPH software (version no. 3.3).

SMILES | IC50
CC(=O)c1cnc(N(Cc2cc(C(F)(F)F)cc(C(F)(F)F)c2)Cc2cc3c(C)nn(C(C)(C)C)c3nc2N(CC2CC2)CC2CC2)nc1 [Example 5, 1-(2-(((6-(bis(cyclopropylmethyl)amino)-1-(tert-butyl)-3-methyl-1H-pyrazolo[3,4-b]pyridin-5-yl)methyl)(3,5-bis(trifluoromethyl)benzyl)amino)pyrimidin-5-yl)ethanone] | 41.5 nM
Cc1nn(C(C)(C)C)c2nc(N(CC3CC3)CC3CC3)c(CN(Cc3cc(C(F)(F)F)cc(C(F)(F)F)c3)c3ncc(C#N)cn3)cc12 [Example 10, 2-(((6-(bis(cyclopropylmethyl)amino)-1-(tert-butyl)-3-methyl-1H-pyrazolo[3,4-b]pyridin-5-yl)methyl)(3,5-bis(trifluoromethyl)benzyl)amino)pyrimidine-5-carbonitrile] | 1250 nM
Cc1nn(C(C)(C)C)c2nc(N(CC3CC3)CC3CC3)c(CN(Cc3cc(C(F)(F)F)cc(C(F)(F)F)c3)c3ncc(-c4ccn(C)n4)cn3)cc12 [Example 9, 5-(((3,5-Bis(trifluoromethyl)benzyl)(5-(1-methyl-1H-pyrazol-3-yl)pyrimidin-2-yl)amino)methyl)-1-(tert-butyl)-N,N-bis(cyclopropylmethyl)-3-methyl-1H-pyrazolo[3,4-b]pyridin-6-amine] | 100 nM
Cc1nn(C(C)(C)C)c2nc(N(CC3CC3)CC3CC3)c(CN(Cc3cc(C(F)(F)F)cc(C(F)(F)F)c3)c3ncc(C(=O)O)cn3)cc12 [Example 20, 2-(((6-(Bis(cyclopropylmethyl)amino)-1-(tert-butyl)-3-methyl-1H-pyrazolo[3,4-b]pyridin-5-yl)methyl)(3,5-bis(trifluoromethyl)benzyl)amino)pyrimidine-5-carboxylic acid] | 61 nM
CC(=O)c1cnc(N(Cc2cc(C(F)(F)F)cc(C(F)(F)F)c2)Cc2cc3c(C)nn(C)c3nc2N(CC2CC2)CC2CC2)nc1 [Example 4, 1-(2-(((6-(bis(cyclopropylmethyl)amino)-1,3-dimethyl-1H-pyrazolo[3,4-b]pyridin-5-yl)methyl)(3,5-bis(trifluoromethyl)benzyl)amino)pyrimidin-5-yl)ethanone] | 5.7 nM
Cc1nn(C(C)(C)C)c2nc(N(CC3CC3)CC3CC3)c(CN(Cc3cc(C(F)(F)F)cc(C(F)(F)F)c3)c3ncc(-c4ccon4)cn3)cc12 [Example 7] | 9.4 nM
Cc1nn(C(C)(C)C)c2nc(N(CC3CC3)CC3CC3)c(CN(Cc3cc(C(F)(F)F)cc(C(F)(F)F)c3)c3ncc(C(=O)N(C)C)cn3)cc12 [Example 12, 2-(((6-(bis(cyclopropylmethyl)amino)-1-(tert-butyl)-3-methyl-1H-pyrazolo[3,4-b]pyridin-5-yl)methyl)(3,5-bis(trifluoromethyl)benzyl)amino)-N,N-dimethylpyrimidine-5-carboxamide] | 215 nM
Cc1nn(C(C)(C)C)c2nc(N(CC3CC3)CC3CC3)c(CN(Cc3cc(C(F)(F)F)cc(C(F)(F)F)c3)c3ncc(NC(=O)C4CC4)cn3)cc12 [Example 3, N-(2-(((6-(bis(cyclopropylmethyl)amino)-1-(tert-butyl)-3-methyl-1H-pyrazolo[3,4-b]pyridin-5-yl)methyl)(3,5-bis(trifluoromethyl)benzyl)amino)pyrimidin-5-yl)cyclopropanecarboxamide] | 35 nM
CCOC(=O)c1cnc(N(Cc2cc(C(F)(F)F)cc(C(F)(F)F)c2)Cc2cc3c(C)nn(C(C)(C)C)c3nc2N(CC2CC2)CC2CC2)nc1 [Example 19, Ethyl 2-(((6-(bis(cyclopropylmethyl)amino)-1-(tert-butyl)-3-methyl-1H-pyrazolo[3,4-b]pyridin-5-yl)methyl)(3,5-bis(trifluoromethyl)benzyl)amino)pyrimidine-5-carboxylate] | 70 nM
Cc1nn(C(C)(C)C)c2nc(N(CC3CC3)CC3CC3)c(CN(Cc3cc(C(F)(F)F)cc(C(F)(F)F)c3)c3ncc(NC(=O)C(C)C)cn3)cc12 [Example 1, N-(2-(((6-(bis(cyclopropylmethyl)amino)-1-(tert-butyl)-3-methyl-1H-pyrazolo[3,4-b]pyridin-5-yl)methyl)(3,5-bis(trifluoromethyl)benzyl)amino)pyrimidin-5-yl) isobutyramide] | 64 nM
Cc1nn(C(C)(C)C)c2nc(N(CC3CC3)CC3CC3)c(CN(Cc3cc(C(F)(F)F)cc(C(F)(F)F)c3)c3ncc(N4CCOCC4)cn3)cc12 [Example 14, 5-(((3,5-Bis(trifluoromethyl)benzyl)(5-morpholinopyrimidin-2-yl)amino)methyl)-1-(tert-butyl)-N,N-bis(cyclopropylmethyl)-3-methyl-1H-pyrazolo[3,4-b]pyridin-6-amine] | 46 nM
Cc1nn(C(C)(C)C)c2nc(N(CC3CC3)CC3CC3)c(CN(Cc3cc(C(F)(F)F)cc(C(F)(F)F)c3)c3ncc(-c4cc[nH]n4)cn3)cc12 [Example 8, 5-(((5-(1H-pyrazol-3-yl)pyrimidin-2-yl)(3,5-bis(trifluoromethyl)benzyl)amino)methyl)-1-(tert-butyl)-N,N-bis(cyclopropylmethyl)-3-methyl-1H-pyrazolo[3,4-b]pyridin-6-amine] | 27 nM
Cc1nc(N(Cc2cc(C(F)(F)F)cc(C(F)(F)F)c2)Cc2cc3c(C)nn(C(C)(C)C)c3nc2N(CC2CC2)CC2CC2)ncc1C(=O)O [Example 18, 2-(((6-(Bis(cyclopropylmethyl)amino)-1-(tert-butyl)-3-methyl-1H-pyrazolo[3,4-b]pyridin-5-yl)methyl)(3,5-bis(trifluoromethyl)benzyl)amino)-4-methylpyrimidine-5-carboxylic acid] | 54 nM
Cc1nn(C)c2nc(N(CC3CC3)CC3CC3)c(CN(Cc3cc(C(F)(F)F)cc(C(F)(F)F)c3)c3ncc(N4CCOCC4)cn3)cc12 [Example 15, 5-(((3,5-bis(trifluoromethyl)benzyl)(5-morpholinopyrimidin-2-yl)amino)methyl)-N,N-bis(cyclopropylmethyl)-1,3-dimethyl-1H-pyrazolo[3,4-b]pyridin-6-amine] | 49 nM
Cc1nn(C(C)(C)C)c2nc(N(CC3CC3)CC3CC3)c(CN(Cc3cc(C(F)(F)F)cc(C(F)(F)F)c3)c3ncc(N4CCCC4=O)cn3)cc12 [Example 16, 1-(2-(((6-(Bis(cyclopropylmethyl)amino)-1-(tert-butyl)-3-methyl-1H-pyrazolo[3,4-b]pyridin-5-yl)methyl)(3,5-bis(trifluoromethyl)benzyl)amino)pyrimidin-5-yl)pyrrolidin-2-one] | 56 nM
Cc1nn(C(C)(C)C)c2nc(N(CC3CC3)CC3CC3)c(CN(Cc3cc(C(F)(F)F)cc(C(F)(F)F)c3)c3ccc(C4CC4)cn3)cc12 [Example 2, 5-(((3,5-Bis(trifluoromethyl)benzyl)(5-cyclopropylpyridin-2-yl)amino)methyl)-1-(tert-butyl)-N,N-bis(cyclopropylmethyl)-3-methyl-1H-pyrazolo[3,4-b]pyridin-6-amine] | 78 nM
Cc1nn(C(C)(C)C)c2nc(N(CC3CC3)CC3CC3)c(CN(Cc3cc(C(F)(F)F)cc(C(F)(F)F)c3)c3ncc(N4CCOC4=O)cn3)cc12 [Example 13, 3-(2-(((6-(bis(cyclopropylmethyl)amino)-1-(tert-butyl)-3-methyl-1H-pyrazolo[3,4-b]pyridin-5-yl)methyl)(3,5-bis(trifluoromethyl)benzyl)amino)pyrimidin-5-yl)oxazolidin-2-one] | 10 nM
Cc1nn(C(C)(C)C)c2nc(N(CC3CC3)CC3CC3)c(CN(Cc3cc(C(F)(F)F)cc(C(F)(F)F)c3)c3ncc(C(N)=O)cn3)cc12 [Example 11, 2-(((6-(bis(cyclopropylmethyl)amino)-1-(tert-butyl)-3-methyl-1H-pyrazolo[3,4-b]pyridin-5-yl)methyl)(3,5-bis(trifluoromethyl)benzyl)amino)pyrimidine-5-carboxamide] | 18 nM
